Data as given in patent publication US10899769B2, “Imidazopiperazinone inhibitors of transcription activating proteins” (Board of Regents, The University of Texas System, priority 2018, dated 2021).

Experiments:
[1] = molecular target: GST-CBP(1081-1197) bromodomain (Homo sapiens (Human), UniProt Q92793); assay: CBP AlphaScreen Assay; details: binding to biotin-H4(1-21) Ac-K5/8/12/16
In short: (§1)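 AlphaScreen binding of GST-bromodomain to biotin-H4(1-21) Ac-K5/8/12/16: 5 nM CBP with 20 nM peptide, or 2.5 nM BRD4 with 10 nM peptide, in 50 mM HEPES 7.5, […], 1 mM TCEP, 0.003% Tween-20. Compound preincubated 30 min, then beads 2 h, room temperature. IC50 from variable-slope fit.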

BRD4(49-170) bromodomain = BRD4(49-170) bromodomain (Homo sapiens (Human), UniProt O60885); assay: BRD4 AlphaScreen Assay; details: binding to biotin-H4(1-21) Ac-K5/8/12/16
In short: as §1

Sequence of GST-CBP(1081-1197) bromodomain (Q92793 1081-1197): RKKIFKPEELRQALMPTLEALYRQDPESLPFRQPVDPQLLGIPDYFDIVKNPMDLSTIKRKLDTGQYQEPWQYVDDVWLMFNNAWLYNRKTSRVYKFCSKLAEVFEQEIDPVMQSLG

IC50 [1]	IC50 (BRD4(49-170) bromodomain)	SMILES
513 nM	≥ 25000 nM	CC1C(=O)N(C)Cc2c(-c3cccc4nc(-c5cnn(C)c5)c(C#N)cc34)nc(C3CCOCC3)n21 (single isomer, unassigned) [Example 8a, 5-(5,7-dimethyl-6-oxo-3-(tetrahydro-2H-pyran-4-yl)-5,6,7,8-tetrahydroimidazo[1,5-a]pyrazin-1-yl)-2-(1-methyl-1H-pyrazol-4-yl)quinoline-3-carbonitrile]
68 nM	> 25000 nM	CC1C(=O)N(C)Cc2c(-c3cccc4cc(-c5noc(=O)[nH]5)ncc34)nc(C3CC3)n21 (single isomer, unassigned) [Example 44a, 3-(8-(3-Cyclopropyl-5,7-dimethyl-6-oxo-5,6,7,8-tetrahydroimidazo[1,5-a]pyrazin-1-yl)isoquinolin-3-yl)-1,2,4-oxadiazol-5(4H)-one]
1 nM	89 nM	C[C@@H]1C(=O)N(C)Cc2c(-c3cccc4cc(-c5cnn(C)c5)ncc34)nc(C3CC3)n21 [Example 111b, (R)-3-cyclopropyl-5,7-dimethyl-1-(3-(1-methyl-1H-pyrazol-4-yl)isoquinolin-8-yl)-7,8-dihydroimidazo[1,5-a] pyrazin-6(5H)-one]
4 nM	879 nM	CC1C(=O)N(C)Cc2c(-c3c(F)ccc4cc(-c5ccn(C)n5)ncc34)nc(C3CCOCC3)n21 (single isomer, unassigned) [Example 90b, 1-(7-fluoro-3-(1-methyl-1H-pyrazol-3-yl)isoquinolin-8-yl)-5,7-dimethyl-3-(tetrahydro-2H-pyran-4-yl)-7,8-dihydroimidazo[1,5a] pyrazin-6(5H)-one]
510 nM	25000 nM	C[C@H]1C(=O)N(C)Cc2c(-c3cccc4cc(-c5cnn(C)c5)ncc34)nc(C3CC3)n21 [Example 111a, (S)-3-cyclopropyl-5,7-dimethyl-1-(3-(1-methyl-1H-pyrazol-4-yl)isoquinolin-8-yl)-7,8-dihydroimidazo[1,5-a] pyrazin-6(5H)-one]
6500 nM	≥ 25000 nM	CC1C(=O)N(C)Cc2c(-c3cccc4nc(-c5cnn(C)c5)c(C(F)F)cc34)nc(C3CCS(=O)(=O)CC3)n21 (single isomer, unassigned) [Example 29a, 1-(3-(Difluoromethyl)-2-(1-methyl-1H-pyrazol-4-yl)quinolin-5-yl)-3-(1,1-dioxidotetrahydro-2H-thiopyran-4-yl)-5,7-dimethyl-7,8-dihydroimidazo[1,5-a]pyrazin-6(5H)-one]

Further lines, the compound ahead of its results:

SMILES	IC50 [1]	IC50 (BRD4(49-170) bromodomain)
CC(=O)N1CCC(c2nc(-c3cccc4nc(-c5cnn(C)c5)c(C(F)F)cc34)c3n2C(C)C(=O)N(C)C3)CC1 (centres unmarked) [Example 80, 3-(1-acetylpiperidin-4-yl)-1-(3-(difluoromethyl)-2-(1-methyl-1H-pyrazol-4-yl)quinolin-5-yl)-5,7-dimethyl-7,8-dihydroimidazo[1,5-a] pyrazin-6(5H)-one]	45 nM	2560 nM
Cc1ccc2cc(-c3ccn(C)n3)ncc2c1-c1nc(C2CCOCC2)n2c1CN(C)C(=O)C2C (centres unmarked) [Example 105, 5,7-dimethyl-1-(7-methyl-3-(1-methyl-1H-pyrazol-3-yl)isoquinolin-8-yl)-3-(tetrahydro-2H-pyran-4-yl)-7,8-dihydroimidazo[1,5-a] pyrazin-6(5H)-one]	27 nM	3480 nM
CN1Cc2c(N3CCCc4nc(-c5cnn(C)c5)c(C(F)(F)F)cc43)nc(C3CC3)n2CC1=O [Example 39, 3-Cyclopropyl-7-methyl-1-(6-(1-methyl-1H-pyrazol-4-yl)-7-(trifluoromethyl)-3,4-dihydro-1,5-naphthyridin-1(2H)-yl)-7,8-dihydroimidazo[1,5-a]pyrazin-6(5H)-one]	185 nM	25000 nM
CC1C(=O)N(C)Cc2c(-c3cccc4cc(-c5cnn(C)c5)ncc34)nc(C3CCOCC3)n21 (centres unmarked) [Example 109, 5,7-dimethyl-1-(3-(1-methyl-1H-pyrazol-4-yl)isoquinolin-8-yl)-3-(tetrahydro-2H-pyran-4-yl)-7,8-dihydroimidazo[1,5-a] pyrazin-6(5H)-one]	2 nM	341 nM
CN1Cc2c(-c3cccc4nc(-c5cnn(C)c5)c(C(F)(F)F)cc34)nc(C3CCOCC3)n2CC1=O [Example 95, 7-methyl-1-(2-(1-methyl-1H-pyrazol-4-yl)-3-(trifluoromethyl)quinolin-5-yl)-3-(tetrahydro-2H-pyran-4-yl)-7,8-dihydroimidazo[1,5-a] pyrazin-6(5H)-one]	31 nM	10600 nM
Cc1ncn(-c2cc3cccc(-c4nc(C5CC5)n5c4CN(C)C(=O)C5C)c3cn2)n1 (centres unmarked) [Example 71, 3-cyclopropyl-5,7-dimethyl-1-(3-(3-methyl-1H-1,2,4-triazol-1-yl)isoquinolin-8-yl)-7,8-dihydroimidazo[1,5-a] pyrazin-6(5H)-one]	4 nM	868 nM
CN1Cc2c(-c3ccc4c(c3)c(-c3cnn(C)c3)nn4C)nc(C3CC3)n2CC1=O [Example 107, 3-cyclopropyl-7-methyl-1-(1-methyl-3-(1-methyl-1H-pyrazol-4-yl)-1H-indazol-5-yl)-7,8-dihydroimidazo [1,5-a] pyrazin-6(5H)-one]	29 nM	6820 nM
Cc1cn(-c2cc3cccc(-c4nc(C5CC5)n5c4CN(C)C(=O)C5C)c3cn2)cn1 (centres unmarked) [Example 70, 3-cyclopropyl-5,7-dimethyl-1-(3-(4-methyl-1H-imidazol-1-yl)isoquinolin-8-yl)-7,8-dihydroimidazo[1,5-a] pyrazin-6(5H)-one]	2 nM	667 nM
CC1C(=O)N(C)Cc2c(-c3ccc4c(cnn4C)c3)nc(C3CC3)n21 (centres unmarked) [Example 50, 3-cyclopropyl-5,7-dimethyl-1-(1-methyl-1H-indazol-5-yl)-7,8-dihydroimidazo[1,5-a] pyrazin-6(5H)-one]	155 nM	1180 nM
Cc1ccn(-c2cc3cccc(-c4nc(C5CC5)n5c4CN(C)C(=O)C5C)c3cn2)n1 (centres unmarked) [Example 73, 3-cyclopropyl-5,7-dimethyl-1-(3-(3-methyl-1H-pyrazol-1-yl)isoquinolin-8-yl)-7,8-dihydroimidazo[1,5-a] pyrazin-6(5H)-one]	3 nM	408 nM
